Values of other authors in US20230056788A1, “METHODS AND COMPOSITIONS FOR THE INHIBITION OF HEPATITIS B AND HEPATITIS D VIRUS INFECTIONS” (priority 2020, published 2023).
In the oligonucleotide strings, read from the 5' end, every base follows the letter of its sugar. An asterisk marks phosphorothioate; unmarked linkages are phosphodiester. Other units and linkages are bracketed, terminal groups are in braces. A string of capitals states the bases alone. [5mC] = 5-methylcytosine; m = 2'-O-methyl

What was measured:
HBV [1] = system: HBV
HBV [2] = conditions: HBeAg positive and negative chronic infection and HBV/HDV co-infection

Substance | antiviral activity (HBV [1]) | activity against infections with multiple HBV genotypes (HBV [2])
(2′OMeA, 2′OMe-5-MeC)20 (mAm[5mC]mAm[5mC]mAm[5mC]mAm[5mC]mAm[5mC]mAm[5mC]mAm[5mC]mAm[5mC]mAm[5mC]mAm[5mC]mAm[5mC]mAm[5mC]mAm[5mC]mAm[5mC]mAm[5mC]mAm[5mC]mAm[5mC]mAm[5mC]mAm[5mC]mAm[5mC]; further chemistry not fully specified) [REP 2147, non phosphorothioated (phosphodiester) counterpart of REP 2139] | inactive | –
(2′OMeA, 2′OMe-5-MeC)10 (mA*m[5mC]*mA*m[5mC]*mA*m[5mC]*mA*m[5mC]*mA*m[5mC]*mA*m[5mC]*mA*m[5mC]*mA*m[5mC]*mA*m[5mC]*mA*m[5mC]; further chemistry not fully specified) [REP 2179, phosphorothioate 20mer counterpart of REP 2139] | (hydrophobic, inactive | –
(2′OMeA, 2′OMe-5-MeC)20 (mA*m[5mC]*mA*m[5mC]*mA*m[5mC]*mA*m[5mC]*mA*m[5mC]*mA*m[5mC]*mA*m[5mC]*mA*m[5mC]*mA*m[5mC]*mA*m[5mC]*mA*m[5mC]*mA*m[5mC]*mA*m[5mC]*mA*m[5mC]*mA*m[5mC]*mA*m[5mC]*mA*m[5mC]*mA*m[5mC]*mA*m[5mC]*mA*m[5mC]; further chemistry not fully specified) [REP 2139] | – | potently active
